Results published in patent US10670616B2, “Microchip for assay of blood properties, and device for assay of blood properties” (FUJIMORI KOGYO CO., LTD., priority 2014, dated 2020).

What was measured:
blood coagulation [1] = assay: ROTEM analysis of blood coagulation in the absence of blood flow (Comparative Example 1); type: cell-based; details: 12 mM calcium chloride, 50 μg/ml CTI and 1 μg/ml Arixtra
Description: Blood was collected using a blood collection tube containing 3.2% sodium citrate, manufactured by Terumo Corporation. To the collected blood, 12 mM calcium chloride; 12 mM calcium chloride and 50 μg/ml CTI; or 12 mM calcium chloride, 50 μg/ml CTI, and 1 μg/ml Arixtra (synthetic pentasaccharide, GlaxoSmithKline K.K.); was/were added, and each resulting blood was analyzed by ROTEM (Tem International GmbH).

[2] = tested on: thrombus formation in blood; assay: Microchip pressure analysis, first channel, collagen + tissue thromboplastin, 8 μl/min (Example 4); type: cell-based; details: for integrated values of the pressures measured for 10 minutes, first channel: 8 μL/min
Description: (§1) A microchip having the same shape as in Examples 1 to 3 was prepared, and, in the second substrate 1b, a solution prepared by mixing 3 mg/ml collagen solution and 0.4 mg/ml tissue thromboplastin solution at a ratio of 1:1 was applied to the positions corresponding to the first reaction section 102 and the second reaction section 112 such that each applied area has a size of 6 mm×6 mm. The microchip prepared was used in the following experiment.
(§2) Blood was collected using a blood collection tube containing 3.2% sodium citrate, manufactured by Terumo Corporation. To the collected blood, 50 μg/ml (final concentration) CTI and 12 mM (final concentration) calcium chloride were added, and the resulting blood was used for perfusion of the first channel at a flow rate of 8 μl/min. (initial wall shear rate, about 660 s^−1) and the second channel at a flow rate of 24 μl/min. (initial wall shear rate, about 2000 s^−1) for 10 minutes while pressure analysis was carried out.
(§3) The same experiment as in Example 4-1 was carried out using (1) blood prepared by 2-fold dilution of the citrate blood with physiological saline; (2) blood prepared by adding a 0.5 U vWF (von Willebrand factor) formulation (CSL-Behring) to the 2-fold diluted blood of (1); (3) blood prepared by adding a 0.5 U PCC formulation (CSL-Behring) to the 2-fold diluted blood of (1); (4) blood prepared by adding 1 U heparin; or (5) blood prepared by adding 3 μg/ml Abciximab (Eli Lilly).
(§4) The integrated values of the pressures measured for 10 minutes, and the ratios between the first channel and the second channel are shown in the following Table 1.

blood coagulation [3] = assay: ROTEM analysis of canine blood coagulation in the absence of blood flow (Comparative Example 2); type: cell-based; details: 0.5 U/ml with 50 μg/ml CTI and 12 mM calcium chloride
Description: Canine blood was anticoagulated with 3.2% sodium citrate. Subsequently, 12 mM calcium chloride; 50 μg/ml (final concentration) CTI and 12 mM (final concentration) calcium chloride; or 0.5 U/ml (final concentration) danaparoid sodium, 50 μg/ml CTI, and 12 mM (final concentration) calcium chloride; was/were added to the blood, and blood coagulation in the absence of blood flow was analyzed by ROTEM (Tem International GmbH).

[4] = tested on: white thrombi in the presence of blood flow; assay: Microchip pressure analysis with canine blood (Examples 5, 6); type: cell-based; details: 0.5 U danaparoid sodium, 24 and 8 μl/min, 10 minutes
Description: Canine blood was anticoagulated with 3.2% sodium citrate. Subsequently, 50 μg/ml (final concentration) CTI and 12 mM (final concentration) calcium chloride were added to the blood, and the resulting blood was used for perfusion of the first channel at a flow rate of 24 μl/min. and the second channel at a flow rate of 8 μl/min. for 10 minutes while pressure analysis was carried out.
An experiment was carried out in the same manner as in Example 5 except that 0.5 U danaparoid sodium was added to the dog sodium citrate blood.

[5] = tested on: thrombus formation in blood; assay: Microchip pressure analysis, second channel, collagen + 0.2 mg/ml tissue thromboplastin, 24 μl/min (Examples 9, 10); type: cell-based; details: for areas under pressure, second channel: 24 μL/min
Description: (§5) The same microchip as in Examples 1 to 3 was used, except that, in the second substrate 1b, a solution prepared by mixing 3 mg/ml collagen and 0.4 mg/ml tissue thromboplastin solution at a ratio of 1:1 and a solution prepared by mixing 3 mg/ml collagen and 0.2 mg/ml tissue thromboplastin solution at a ratio of 1:1 were applied to the positions corresponding to the first reaction section 102 and the second reaction section 112, respectively, such that each applied area has a size of 6 mm×6 mm. The microchip prepared was used in the following experiment.
as §2, with “μl/min.” for “μl/min. (initial wall shear rate, about 660 s^−1)”, “μl/min.” for “μl/min. (initial wall shear rate, about 2000 s^−1)”
(§6) The same experiment as in Example 9 was carried out except that blood prepared by 2-fold dilution with physiological saline (Otsuka Pharmaceutical Co., Ltd.), blood prepared by 2-fold dilution with physiological saline+addition of 0.5 U/ml vWF (CSL-Behring), blood prepared by 2-fold dilution+addition of 0.5 U/ml PCC (CSL-Behring), blood prepared by addition of 1 U/ml heparin, or blood prepared by addition of 2 μg/ml abciximab, was used.

[6] = tested on: thrombus formation in blood; assay: Microchip pressure analysis, second channel, collagen + tissue thromboplastin, 24 μl/min (Example 4); type: cell-based; details: for integrated values of the pressures measured for 10 minutes, second channel: 24 μL/min
Description: as §1, §2, §3, §4

[7] = tested on: thrombus formation in blood; assay: Microchip pressure analysis, first channel, collagen + 0.4 mg/ml tissue thromboplastin, 8 μl/min (Examples 9, 10); type: cell-based; details: for areas under pressure, first channel: 8 μL/min
Description: as §5
as §2, with “μl/min.” for “μl/min. (initial wall shear rate, about 660 s^−1)”, “μl/min.” for “μl/min. (initial wall shear rate, about 2000 s^−1)”
as §6

[8] = tested on: thrombus formation (fibrin and platelets) in blood; assay: Microchip pressure analysis, first channel coated with collagen and tissue thromboplastin, recalcified citrate blood + CTI (Examples 1, 2); type: cell-based, human
Description: (§7) Two transparent substrates, that is, the first substrate 1a shown in FIG. 1(A) and the second substrate 1b shown in FIG. 1(B) (injection-molded products manufactured by Richell Corporation), were prepared. In the first substrate 1a, each of the channels 101 and 111 has a length of 20 mm, depth of 40 μm, and width of 2 mm, and each of the waste liquid storage sections has a length of 30 mm, depth of 1.3 mm, and width of 8.5 mm.
(§8) In the substrate 1a, 25 dividing walls each having a height of 40 μm, width of 40 μm, and length of 1.5 mm were arranged at equal intervals at positions corresponding to the first reaction section and the second reaction section of the first channel and the second channel, to provide channel dividing walls 109 and 119, respectively.
(§9) In the second substrate 1b, the holes corresponding to the inlets 104 and 114 were provided as penetrating holes each having an inner diameter of 2 mm and a circular cross-sectional shape. On the other hand, the holes corresponding to the air holes 105 and 115 were provided as penetrating holes each having an inner diameter of 1 mm and a circular cross-sectional shape. […]
(§10) Pumps 107 and 117 were connected to the reservoirs 106 and 116 through tubes, and the pressures applied to the pumps were measured using pressure sensors 108 and 118.

[9] = tested on: platelet-specific thrombus formation in blood; assay: Microchip pressure analysis, second channel coated with only collagen, hirudin-treated blood (Examples 1, 2); type: cell-based, human
Description: as §7, §8, §9, §10

[10] = undiluted blood, heparin 1 U/ml or abciximab 3 μg/ml, control 409.3
[11] = undiluted blood, 1 U/ml heparin or 2 μg/ml abciximab, cont 438.2
[12] = undiluted blood, heparin 1 U/ml or abciximab 3 μg/ml, control 482
[13] = undiluted blood, 1 U/ml heparin or 2 μg/ml abciximab, cont 393.8

Question: Which “blood coagulation in the absence of blood flow” value (blood coagulation [1]) does the source give for `CO[C@H]1O[C@H](COS(=O)(=O)O)[C@@H](O[C@@H]2O[C@@H](C(=O)O)[C@@H](O[C@H]3O[C@H](COS(=O)(=O)O)[C@@H](O[C@@H]4O[C@H](C(=O)O)[C@@H](O[C@H]5O[C@H](COS(=O)(=O)O)[C@@H](O)[C@H](O)[C@H]5NS(=O)(=O)O)[C@H](O)[C@H]4O)[C@H](OS(=O)(=O)O)[C@H]3NS(=O)(=O)O)[C@H](O)[C@H]2OS(=O)(=O)O)[C@H](O)[C@H]1NS(=O)(=O)O` [Arixtra] here?
Answer: strongly suppresses blood coagulation

Question: And the “change in the pressure waveform” value ([2]; Example 4-1 conditions, further addition of 0.5 μg/ml to the blood)?
Answer: no remarkable change in the pressure waveform

Question: What does the source list for danaparoid sodium?
Answer: blood coagulation in the absence of blood flow (blood coagulation [3]): remarkable delay of blood coagulation; white thrombi in the presence of blood flow [4]: hardly suppresses white thrombi

Question: With heparin [reference compound] as the molecule, how does the “integrated values of the pressures measured for 10 minutes, first channel” value [2, 10] read?
Answer: 127.3

Question: And the “areas under pressure, second channel” value [5, 11]?
Answer: 198

Question: What about the “integrated values of the pressures measured for 10 minutes, second channel” value [6, 12] of the same molecule?
Answer: 328.4

Question: What about the “areas under pressure, first channel” value [7, 13] of the same molecule?
Answer: 12

Question: And the “thrombus formation in the first channel” value ([7]; Examples 9 and 10)?
Answer: more strongly suppressed thrombus formation in the first channel

Question: For “vWF: vWF (von Willebrand factor) formulation (CSL-Behring)”, which “integrated values of the pressures measured for 10 minutes, first channel” value ([2]; 50% dilution of citrate blood with physiological saline + 0.5 U/ml factor, 50% dilution alone 203.9) is on record?
Answer: 171.2

Question: And the “areas under pressure, second channel” value ([5]; 50% dilution with physiological saline + 0.5 U/ml factor, 50% dil alone 110.2)?
Answer: 282.8

Question: What about the “integrated values of the pressures measured for 10 minutes, second channel” value ([6]; 50% dilution of citrate blood with physiological saline + 0.5 U/ml factor, 50% dilution alone 248.2) of the same molecule?
Answer: 381.1

Question: And the “thrombi in the second channel” value ([6]; Example 4-2, 24 μl/min)?
Answer: remarkable recovery of thrombi in the second channel

Question: What about the “areas under pressure, first channel” value ([7]; 50% dilution with physiological saline + 0.5 U/ml factor, 50% dil alone 195.8) of the same molecule?
Answer: 297.9

B1: abciximab (antibody, chains of the INN, looked up, V domains shown)
VH: EVQLQQSGTVLARPGASVKMSCEASGYTFTNYWMHWVKQRPGQGLEWIGAIYPGNSDTSYIQKFKGKAKLTAVTSTTSVYMELSSLTNEDSAVYYCTLYDGYYVFAYWGQGTLVTVSA
VL: EIVLTQSPVTLSVTPGDSVSLSCRASRDISNNLHWFQQTSHESPRLLIKYASQSMSGIPSRFSGSGSGTDFTLSINSVETEDFGMYFCQQTNSWPYTFGGGTKLEIK
modifications: Fab
Question: How did the “thrombus formation in the first channel” value ([8]; Examples 1 and 2) turn out when B1 was run?
Answer: suppressed

Question: And the “integrated values of the areas below 60 kPa, first channel” value ([8]; citrate blood + 12 mM calcium chloride + 50 μg/ml CTI, 18 μl/min, 10 minutes, 10 mM aspirin + 100 μM AR-C66096, 3 μg/ml abciximab or 200 nM OS-1, control 457)?
Answer: 27.0

Question: And the “integrated values of the pressures measured for 10 minutes, first channel” value [2, 10]?
Answer: 394.8

Question: What about the “areas under pressure, second channel” value [5, 11] of the same molecule?
Answer: 6

Question: And the “thrombus formation in the second channel” value ([5]; Examples 9 and 10)?
Answer: more strongly suppressed thrombus formation in the second channel

Question: And the “thrombus formation in the second channel” value ([9]; Examples 1 and 2)?
Answer: suppressed

Question: And the “integrated values of the areas below 60 kPa, second channel” value ([9]; hirudin blood, 18 μl/min, 10 minutes, 10 mM aspirin + 100 μM AR-C66096, 3 μg/ml abciximab or 200 nM OS-1, control 372)?
Answer: 5.4

Question: What about the “integrated values of the pressures measured for 10 minutes, second channel” value [6, 12] of the same molecule?
Answer: 20.5

Question: And the “areas under pressure, first channel” value [7, 13]?
Answer: 258
